The results in this text go back to US20100168079A1 (priority 2008, published 2010).

One test addresses T1, human S1P1 receptors (Homo sapiens, UniProt P21453).
T1 construct: myc (N); expressed in transfected cells; host or cells: HeLa (human cervix carcinoma, ATCC CCL2), HeLa-S1P1/Gα16 cell clone 1
As to the kind of experiment: Human S1P1 Receptor Calcium FLIPR Antagonist Assay (HeLa Gα16 S1P1). Particulars: relative antagonism of Ca2+ signal evoked by probing agonist GNF-AC-1 at EC80; HeLa-S1P1/Gα16 cells. The class given is cell-based. Summed up: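 HeLa Gα16 cells expressing S1P1 loaded for calcium fluorescence on FLIPR; compounds added in HBSS with 0.1% BSA, then agonist at EC80 20-30 min later. IC50 from (Fmax-Fmin)/Fmin versus log compound concentration.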

The test system of another test is circulating lymphocytes. As to the kind of experiment: Measurement of Circulating Lymphocytes. The class given is in vivo, Rats (Lewis strain, male). To be noted: Rattus norvegicus, Lymphocyte; male Lewis rats, 14 hours after oral 30 mg/kg, compared to vehicle-only group; mean±SEM; read-out: Residual Lymphocyte Counts 14 hours after 30 mg/kg p.o. dosing. The method, then:
The compounds of formula (I) typically induce the depletion of blood lymphocyte as may be determined in the assay described below. Moreover, compounds of formula (I) are typically efficacious in the said assay also when administered via the per oral route of administration.
Measurement of Circulating Lymphocytes:
The test compounds (or salts thereof) are dissolved in a vehicle such as water, saline, PEG (polyethylene glycol) 200, or PBS (phosphate buffered saline). Rats (Lewis strain, male, 6-12 weeks old) are administered up to 100 mg/kg of the test compounds in 2 ml/kg vehicle via per oral or subcutaneous application. The vehicle or a reference salt and FTY720 (0.3 mg/kg) are included as negative and positive controls, respectively.
Blood is collected from the sublingual vein before and 2, 8 and 24 hours or 14, 18 and 24 hours after the test compound administration under short isoflurane anesthesia. Whole blood samples are subjected to hematology analysis. Peripheral lymphocyte counts are determined using an automated analyzer. The Haemathology System uses a combination of light scatter, cytochemical staining and nuclear density on two independent channels to measure the total and differential white cell counts. Two to four rats are used to assess the lymphocyte depletion activity of each compound screened. The data are presented as mean±SEM.

T1 sequence (P21453 whole entry): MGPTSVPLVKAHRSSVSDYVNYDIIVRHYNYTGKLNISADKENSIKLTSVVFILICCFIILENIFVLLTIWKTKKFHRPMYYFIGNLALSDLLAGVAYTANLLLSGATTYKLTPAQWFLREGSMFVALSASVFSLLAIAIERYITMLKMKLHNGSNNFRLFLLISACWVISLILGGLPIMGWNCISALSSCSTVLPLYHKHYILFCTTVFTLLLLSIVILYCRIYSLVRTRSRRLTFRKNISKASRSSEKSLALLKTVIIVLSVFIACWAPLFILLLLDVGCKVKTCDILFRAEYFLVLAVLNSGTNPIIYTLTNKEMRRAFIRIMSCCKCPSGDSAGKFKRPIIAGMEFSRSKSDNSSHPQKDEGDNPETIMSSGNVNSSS

What is called IC50 is the concentration that inhibits the measured activity by half. Consider `Cc1cc([C@@H](C)Nc2cccc(-c3cc(C)c(C(=O)N[C@@H](C)C(=O)O)c(C)c3)c2)cc(C)c1Cl` [Example 100, (S)-2-({3′-[(R)-1-(4-Chloro-3,5-dimethyl-phenyl)-ethylamino]-3,5-dimethyl-biphenyl-4-carbonyl}-amino)-propionic acid], for which the half-inhibitory concentration (IC50) at human S1P1 receptors is 1 nM. In addition, the response vs control in vivo at 30 mg/kg in the test on circulating lymphocytes was 20.9%.
Taken in the same sequence, the figures for `Cc1cc(C(Nc2cccc(-c3cc(C)c(C(=O)N(C)[C@@H](C)C(=O)O)c(C)c3)c2)C(F)F)ccc1Cl` (stereo partly drawn) [Example 103, (S)-2-({3′-[1-(4-Chloro-3-methyl-phenyl)-2,2-difluoro-ethylamino]-3,5-dimethyl-biphenyl-4-carbonyl}-methyl-amino)-propionic acid] were 3 nM and 13.9%.
`CC[C@H](c1ccc(Cl)c(C)c1)N(C)c1cccc(-c2cc(C)c(C(=O)N(C)[C@@H](C)C(=O)O)c(C)c2)c1` [Example 105, (S)-2-[(3′-{[(R)-1-(4-Chloro-3-methyl-phenyl)-propyl]-methyl-amino}-3,5-dimethyl-biphenyl-4-carbonyl)-methyl-amino]-propionic acid]: the 50% inhibitory concentration (IC50) at human S1P1 receptors was 10 nM. In addition, the response vs control in vivo at 30 mg/kg in the test on circulating lymphocytes stood at 20.9%.
For `Cc1cc([C@H](Nc2cccc(-c3cc(C)c(C(=O)N[C@@H](C)C(=O)O)c(C)c3)c2)C(F)(F)F)ccc1Cl` [Example 106, (S)-2-({3′-[(S)-1-(4-Chloro-3-methyl-phenyl)-2,2,2-trifluoro-ethylamino]-3,5-dimethyl-biphenyl-4-carbonyl}-amino)-propionic acid] the same measures were 2 nM and 10.9%.
Taken in the same sequence, the figures for `CC[C@H](c1ccc(Cl)c(C)c1)N(C)c1cccc(-c2cc(C)c(C(=O)NC3(C(=O)O)CC3)c(C)c2)c1` [Example 108, 1-[(3′-{[(R)-1-(4-Chloro-3-methyl-phenyl)-propyl]-methyl-amino}-3,5-dimethyl-biphenyl-4-carbonyl)-amino]-cyclopropanecarboxylic acid] were 8 nM and 19.6%.
Taken in the same sequence, the figures for `CC[C@@H](Nc1cccc(-c2cc(C)c(C(=O)NC3(C(=O)O)CC3)c(C)c2)c1)c1ccc(Cl)c(C)c1` [Example 109, 1-({3′-[(R)-1-(4-Chloro-3-methyl-phenyl)-propylamino]-3,5-dimethyl-biphenyl-4-carbonyl}-amino)-cyclopropanecarboxylic] were 2 nM and 19.1%.
As to `Cc1cc([C@H](Nc2cccc(-c3cc(C)c(C(=O)NC4(C(=O)O)CC4)c(C)c3)c2)C(F)(F)F)ccc1Cl` [Example 112, 1-({3′-[(S)-1-(4-Chloro-3-methyl-phenyl)-2,2,2-trifluoro-ethylamino]-3,5-dimethyl-biphenyl-4-carbonyl}-amino)-cyclopropanecarboxylic acid], on human S1P1 receptors, the IC50 worked out at 2 nM. In the test on circulating lymphocytes, the response vs control in vivo at 30 mg/kg was found to be 18.3%.
Consider `CC[C@@H](Nc1ccc(F)c(-c2cc(C)c(C(=O)NC3(C(=O)O)CC3)c(C)c2)c1)c1ccc(Cl)c(C)c1` [Example 115, 1-({5′-[(R)-1-(4-Chloro-3-methyl-phenyl)-propylamino]-2′-fluoro-3,5-dimethyl-biphenyl-4-carbonyl}-amino)-cyclopropanecarboxylic acid], for which the IC50 at human S1P1 receptors came to 2 nM. For the same compound, the response vs control in vivo at 30 mg/kg in the test with circulating lymphocytes is 15.8%.
Taken in the same sequence, the figures for `CC[C@@H](Nc1ccc(F)c(-c2cc(C)c(C(=O)N(C)[C@@H](C)C(=O)O)c(C)c2)c1)c1ccc(Cl)c(C)c1` [Example 117, (S)-2-({5′-[(R)-1-(4-Chloro-3-methyl-phenyl)-propylamino]-2′-fluoro-3,5-dimethyl-biphenyl-4-carbonyl}-methyl-amino)-propionic acid] were 2 nM and 15%.
